Measurements published in patent US7727511B2, “Agents for imaging soluble a-beta” (priority 2003, dated 2010).
“Also recorded” adds a separate entry of the source.

Experiments:
[1] = tested on: beta-amyloid in PDAPP mouse brain sections; test: Histochemical staining on PDAPP transgenic mouse brain sections; format: binding
Description: 3-month old and 24-month old PDAPP mouse brains were obtained from Eli Lilly (Indianapolis, Ind.). Fresh frozen 30 micron sections of the brains were fixed in 10% formalin. For 49b, or Thioflavin S staining, 1 mM stock solutions of 49b and Thioflavin S were prepared in 50% ethanol. The probes were diluted to 25 μM in 50% ethanol, and then applied onto the PDAPP brain sections. The slides were incubated in a humid chamber at room temperature for 1 hr. The slides were washed three times with PBS and mounting medium (Molecular Probes) was added. The slides were incubated at least 4-6 hours before imaging. For the carbonate pre-treatment of the brain sections, formalin-fixed sections were incubated with 100 μL of carbonate buffer containing 0.025 M sodium chloride and 0.1 M sodium carbonate for 45 mins at 37° C. The slides were washed three times with PBS, then 49b or Thioflavin S were applied on the slides as described above. Microscopic examination and imaging was performed using a Leica wide-field fluorescence microscope using filter cube A for 49b and cube E4 for Thioflavin S. Co-staining of the probes with 6E10 anti-beta-amyloid antibody in the PDAPP brain sections was described in the ex vivo assay using naïve rats.

[2] = biological target: T1, beta-amyloid 1-40 (20% biotin) fibrils (Homo sapiens, UniProt P05067); test: Scintillation proximity assay (SPA), direct/saturation binding of tritium labeled probe to fibrils; details: immobilized fibrils, identical conditions
T1 construct: purchased Bachem H-1194; biotinylated H-5914; host or cells: synthetic peptide
T1 sequence (P05067 672-711 limits assumed): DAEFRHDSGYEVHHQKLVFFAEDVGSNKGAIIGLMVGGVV
Description: B. Insoluble A-beta (1-40) fibril formation: Lyophilized human beta-amyloid 1-40 peptide (Catalog number H-1194, Bachem) was solubilized with HFIP to produce a dry clear film following the process described above for beta-amyloid 1-42. The clear film of beta-amyloid 1-40 was diluted with distilled water to achieve a 6 mg/mL concentration. […] The clear solution was diluted to 1 mg/mL with PBS, pH 7.4 to obtain a final concentration of 1 mg/mL beta-amyloid 1-40, and then incubated at 37° C. on an orbital shaker at 200 RPM for 4 days. A cloudy solution was produced, and the fibril production was confirmed by measuring changes in fluorescence of Thioflavin T, as well as by atomic force microscopy and transmission electron microscopy. Fibrils were used immediately after their production was confirmed.
For SPA and atomic force microscopy (AFM) experiments, preparations of soluble oligomers and fibrils contained 20% biotinylated beta-amyloid 1-42 and 1-40, respectively (H-5642, H-5914, Bachem). […]
For the saturation-binding assay, isotopic dilution of radiolabeled 49b with unlabeled 49b was performed. ^3H-49b was added to 500 uM of unlabeled 49b to a final concentration of 50 μCi/mL ^3H-49b. […] Assays were incubated overnight and counted the following morning. […]

[3] = biological target: beta-amyloid 1-40 monomers (Homo sapiens, UniProt P05067); test: Ex vivo fluorescent binding assay, monomers on naive rat brain sections; details: data not shown
Chain of beta-amyloid 1-40 monomers (P05067 672-711 limits assumed): as above
Description: (§1) Fresh-frozen tissue sections of Sprauge-Dawley naïve rat brain (Taconic) 10 microns in thickness were fixed with 10% formalin in PBS. Each section of the rat brain was then embedded in paraffin, an optional step that increases the shelf life of the sample. Pre-formed soluble oligomers (100 μM), fibrils (100 μM), or monomers were applied onto tissues, and the slides incubated in a humidified chamber for two hours at 37° C. The slides were washed with PBS three times, then incubated with blocking buffer consisting of 10% normal goat serum in 3% BSA in PBS. To verify the presence of beta-amyloid, 100 μL of a 1/250th dilution of anti-beta-amyloid antibody, 6E10 (Signet Laboratories) was applied onto the tissues. The slides were incubated for 1.5 hours at room temperature or for 45 mins at 37° C. 1 mM stock solutions of 49b and Thioflavin T were prepared in 50% ethanol. The probes were diluted to 50 μM in blocking buffer. […] Microscopic examination and imaging was performed using a Leica wide-field fluorescence microscope using filter cube A (band pass 340-380 nm with a 400 nm dichroic mirror and a long pass 400 nm suppression filter) for 49b, cube E4 (band pass 436 nm with 455 dichroic mirror and a long pass 470 nm suppression filter) for Thioflavin T, and TX2 (band pass 520-600 nm with 595 nm dichroic mirror and 645/75 band pass suppression filter) for 6E10 immunostaining.

[4] = biological target: beta-amyloid 1-42 monomers (Homo sapiens, UniProt P05067); test: as above; details: data not shown
Chain of beta-amyloid 1-42 monomers (P05067 672-713 limits assumed): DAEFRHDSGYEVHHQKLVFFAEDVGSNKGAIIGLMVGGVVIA
Description: as §1

O=Cc1ccc(-c2oc3ccccc3c2CO)o1 [Compound 49b, 2-(2-formyl-5-furanyl)-3-hydroxymethyl benzofuran]
staining of brain sections ([1]; 24-month old PDAPP mice, 25 μM probe): punctuate staining pattern that co-localized with beta-amyloid immunoreactivity; also recorded: primarily found in the hippocampus and co-localized with Thioflavin S staining
staining of carbonate pre-treated brain sections ([1]; 24-month old PDAPP, carbonate extraction buffer to remove soluble material): did not stain
staining of brain sections ([1]; young (3-month old) PDAPP mice): No staining was observed
affinity to fibrils [2]: no measurable affinity; also recorded: No demonstrable affinity
staining of beta-amyloid 1-40 monomers [3]: did not stain
staining of beta-amyloid 1-42 monomers [4]: did not stain
